Biological target: T1, Adenosine receptor A3 (Homo sapiens, UniProt P0DMS8)
T1 sequence (P0DMS8 whole entry): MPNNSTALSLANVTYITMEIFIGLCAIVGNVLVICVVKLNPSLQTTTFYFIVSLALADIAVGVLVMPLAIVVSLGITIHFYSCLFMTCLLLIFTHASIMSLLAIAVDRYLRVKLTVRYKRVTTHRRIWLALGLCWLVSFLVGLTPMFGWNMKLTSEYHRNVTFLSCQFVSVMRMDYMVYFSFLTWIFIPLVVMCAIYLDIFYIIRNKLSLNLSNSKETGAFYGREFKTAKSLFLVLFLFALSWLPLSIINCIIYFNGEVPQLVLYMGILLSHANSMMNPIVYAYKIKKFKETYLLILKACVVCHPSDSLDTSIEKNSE

Ki: 10 nM
Compound: Nc1ccc(CNc2ncnc3c2ncn3[C@@H]2O[C@H](CO)[C@@H](O)[C@H]2O)cc1I [IABA]

From BindingDB's records for doi:10.1073/pnas.90.21.10365 (Merck Research Laboratories, 1993)
